In patent US20230089557A1, “METHODS OF TREATING DLBCL USING BTK INHIBITORS AND COMBINATIONS THEREOF” (BEIGENE SWITZERLAND GMBH, priority 2020, published 2023):

Test system: R/R non-GCB DLBCL
Assay: Compound 1 in combination with anti-CD20 antibody in patients with R/R non-GCB DLBCL
Format: in vivo, human
Conditions: for unadjusted ORR: non-GCB DLBCL
Procedure: A total of 121 patients with R/R non-GCB DLBCL were recruited in four Compound 1 treatment studies that were conducted at a similar time period. Two of the four studies were Compound 1 monotherapy (n=79) and two were Compound 1 combined with an anti-CD20 antibody therapy (n=42). Similar inclusion and exclusion criteria and response evaluation criteria were used across all studies. Fifty-six non-GCB patients were further subtyped by gene expression profiling (GEP) using the HTG EdgeSeq DLBCL Cell of Origin Assay. The expression of approximately 90 lymphoma-associated genes from the HTG GEP assay were analyzed by R package limma for correlation with response to Compound 1 treatment. Seventy-seven patient samples were tested by next-generation sequencing (NGS) with a panel of genes. Chi-square test was used to evaluate the correlation between mutations and the objective response rate (ORR).
Combination therapy schedule 1: Compound 1 was administered orally every day in each cycle at 160 mg BID in 28-day cycles, in combination with obinutuzumab, in patients with R/R non-GCB DLBCL. Obinutuzumab was administered for up to 6 cycles consistent with the U.S. label regimen (100 mg at Day 1 Cycle 1, 1000 mg at Day 8 and Day 15, 900 mg at Day 2 Cycle 1 followed by 1000 mg on day one of cycles 2-6).
Combination therapy schedule 2: Compound 1 was administrated orally every day in each cycle at 160 mg BID in 28-day cycles, in combination with rituximab, in patients with R/R non-GCB DLBCL. Rituximab was administered at 375 mg/m2 intravenously on Cycle 1 Days 1, 8, 15, 22, and on Day 1 of Cycles 4, 6, 8, 10. Compound 1 was administered at least 30 minutes prior to the initiation of the rituximab infusion.
42 patients with non-GCB DLBCL were subjected to Compound 1 plus anti-CD20 antibody Combination therapy schedule 1 or 2.

[1] = combination therapy Total (N = 42), ABC Subtype of DLBCL Patients
[2] = combination therapy Total (N = 42), CD79B ITAM_Mut
[3] = combination therapy Total (N = 42), CD79B ITAM_WT
[4] = combination therapy Total (N = 42), CD79B_Mut
[5] = combination therapy Total (N = 42), CD79B_WT
[6] = combination therapy Total (N = 42), MYD88_L265P
[7] = combination therapy Total (N = 42), MYD88_L265P/CD79B_Mut
[8] = combination therapy Total (N = 42), MYD88_WT
[9] = combination therapy Total (N = 42), NOTCH1_Mut
[10] = combination therapy Total (N = 42), NOTCH1_WT
[11] = combination therapy Total (N = 42), Non-GCB DLBCL Patients
[12] = combination therapy Total (N = 42), Non-GCB DLBCL Patients with Sequence Available
[13] = combination therapy Total (N = 42), Other (not MYD88_L265P/CD79B_Mut)
[14] = combination therapy Total (N = 42), Patients with Sequence Available
[15] = plus obinutuzumab (N = 22), ABC Subtype of DLBCL Patients
[16] = plus obinutuzumab (N = 22), CD79B ITAM_Mut
[17] = plus obinutuzumab (N = 22), CD79B ITAM_WT
[18] = plus obinutuzumab (N = 22), CD79B_Mut
[19] = plus obinutuzumab (N = 22), CD79B_WT
[20] = plus obinutuzumab (N = 22), MYD88_L265P
[21] = plus obinutuzumab (N = 22), MYD88_L265P/CD79B_Mut
[22] = plus obinutuzumab (N = 22), MYD88_WT
[23] = plus obinutuzumab (N = 22), NOTCH1_Mut
[24] = plus obinutuzumab (N = 22), NOTCH1_WT
[25] = plus obinutuzumab (N = 22), Non-GCB DLBCL Patients
[26] = plus obinutuzumab (N = 22), Non-GCB DLBCL Patients with Sequence Available
[27] = plus obinutuzumab (N = 22), Other (not MYD88_L265P/CD79B_Mut)
[28] = plus obinutuzumab (N = 22), Patients with Sequence Available
[29] = plus rituximab (N = 20), ABC Subtype of DLBCL Patients
[30] = plus rituximab (N = 20), CD79B ITAM_Mut
[31] = plus rituximab (N = 20), CD79B ITAM_WT
[32] = plus rituximab (N = 20), CD79B_Mut
[33] = plus rituximab (N = 20), CD79B_WT
[34] = plus rituximab (N = 20), MYD88_L265P
[35] = plus rituximab (N = 20), MYD88_L265P/CD79B_Mut
[36] = plus rituximab (N = 20), MYD88_WT
[37] = plus rituximab (N = 20), NOTCH1_Mut
[38] = plus rituximab (N = 20), NOTCH1_WT
[39] = plus rituximab (N = 20), Non-GCB DLBCL Patients
[40] = plus rituximab (N = 20), Non-GCB DLBCL Patients with Sequence Available
[41] = plus rituximab (N = 20), Other (not MYD88_L265P/CD79B_Mut)
[42] = plus rituximab (N = 20), Patients with Sequence Available

## C=CC(=O)N1CCC([C@@H]2CCNc3c(C(N)=O)c(-c4ccc(Oc5ccccc5)cc4)nn32)CC1 [Compound 1, (S)-7-(1-acryloylpiperidin-4-yl)-2-(4-phenoxyphenyl)-4,5,6,7-tetra-hydropyrazolo[1,5-a]pyrimidine-3-carboxamide]
GEP-confirmed activated B-cell DLBCL, first of the two combo-therapies (obinutuzumab)
  ORR: 50%
GEP-confirmed activated B-cell DLBCL, second of the two combo-therapies (rituximab)
  ORR: 40%
[1]
  ORR: 45.5
  Response/Patients: 5/11
[2]
  ORR: 83.3
  Response/Patients: 5/6
Combination therapy Total (N = 42), CD79B ITAM_Mut vs CD79B ITAM_WT
  Difference in ORR (95% CI): 61.1
[3]
  ORR: 22.2
  Response/Patients: 6/27
[4]
  ORR: 75.0
  Response/Patients: 6/8
Combination therapy Total (N = 42), CD79B_Mut vs CD79B_WT
  Difference in ORR (95% CI): 55.0
[5]
  ORR: 20.0
  Response/Patients: 5/25
[6]
  ORR: 66.7
  Response/Patients: 4/6
Combination therapy Total (N = 42), MYD88_L265P vs MYD88_WT
  Difference in ORR (95% CI): 40.7
[7]
  ORR: 75.0
  Response/Patients: 3/4
Combination therapy Total (N = 42), MYD88_L265P/CD79B_Mut vs Other
  Difference in ORR (95% CI): 47.4
[8]
  ORR: 25.9
  Response/Patients: 7/27
[9]
  ORR: 40.0
  Response/Patients: 2/5
Combination therapy Total (N = 42), NOTCH1_Mut vs NOTCH1_WT
  Difference in ORR (95% CI): 7.9
[10]
  ORR: 32.1
  Response/Patients: 9/28
[11]
  ORR: 28.6
  Response/Patients: 12/42
[12]
  ORR: 33.3
  Response/Patients: 11/33
[13]
  ORR: 27.6
  Response/Patients: 8/29
[14]
  ORR: 35.3
  Response/Patients: 12/34
First of the two combo-therapies (obinutuzumab)
  unadjusted ORR: 22.7%
Second of the two combo-therapies (rituximab)
  unadjusted ORR: 35%
[15]
  ORR: 50.0
  Response/Patients: 3/6
[16]
  ORR: 100.0
  Response/Patients: 3/3
Plus obinutuzumab (N = 22), CD79B ITAM_Mut vs CD79B ITAM_WT, in %
  Difference in ORR (95% CI): 91.7
[17]
  ORR: 8.3
  Response/Patients: 1/12
[18]
  ORR: 100.0
  Response/Patients: 3/3
Plus obinutuzumab (N = 22), CD79B_Mut vs CD79B_WT, in %
  Difference in ORR (95% CI): 91.7
[19]
  ORR: 8.3
  Response/Patients: 1/12
[20]
  ORR: 100.0
  Response/Patients: 3/3
Plus obinutuzumab (N = 22), MYD88_L265P vs MYD88_WT, in %
  Difference in ORR (95% CI): 91.7
[21]
  ORR: 100.0
  Response/Patients: 3/3
Plus obinutuzumab (N = 22), MYD88_L265P/CD79B_Mut vs Other, in %
  Difference in ORR (95% CI): 91.7
[22]
  ORR: 8.3
  Response/Patients: 1/12
[23]
  ORR: 66.7
  Response/Patients: 2/3
Plus obinutuzumab (N = 22), NOTCH1_Mut vs NOTCH1_WT
  Difference in ORR (95% CI): 50.0
[24]
  ORR: 16.7
  Response/Patients: 2/12
[25]
  ORR: 22.7
  Response/Patients: 5/22
[26]
  ORR: 26.7
  Response/Patients: 4/15
[27]
  ORR: 8.3
  Response/Patients: 1/12
[28]
  ORR: 31.3
  Response/Patients: 5/16
[29]
  ORR: 40.0
  Response/Patients: 2/5
[30]
  ORR: 66.7
  Response/Patients: 2/3
Plus rituximab (N = 20), CD79B ITAM_Mut vs CD79B ITAM_WT
  Difference in ORR (95% CI): 33.3
[31]
  ORR: 33.3
  Response/Patients: 5/15
[32]
  ORR: 60.0
  Response/Patients: 3/5
Plus rituximab (N = 20), CD79B_Mut vs CD79B_WT
  Difference in ORR (95% CI): 29.2
[33]
  ORR: 30.8
  Response/Patients: 4/13
[34]
  ORR: 33.3
  Response/Patients: 1/3
Plus rituximab (N = 20), MYD88_L265P vs MYD88_WT
  Difference in ORR (95% CI): −6.7
[35]
  ORR: 0.0
  Response/Patients: 0/1
Plus rituximab (N = 20), MYD88_L265P/CD79B_Mut vs Other
  Difference in ORR (95% CI): −41.2
[36]
  ORR: 40.0
  Response/Patients: 6/15
[37]
  ORR: 0.0
  Response/Patients: 0/2
Plus rituximab (N = 20), NOTCH1_Mut vs NOTCH1_WT
  Difference in ORR (95% CI): −43.8
[38]
  ORR: 43.8
  Response/Patients: 7/16
[39]
  ORR: 35.0
  Response/Patients: 7/20
[40]
  ORR: 38.9
  Response/Patients: 7/18
[41]
  ORR: 41.2
  Response/Patients: 7/17
[42]
  ORR: 38.9
  Response/Patients: 7/18
